Consider 8 compounds from patent publication US7432045B2 (priority 2003, dated 2008).

pIC50: −log10 of the molar value. Like-named read-outs stand apart in the source and are kept apart here. Peptide text beside a SMILES is read from it. * marks the point of attachment. code b = biotin-ε-aminohexanoyl, O=C(CCCC[C@@H]1SC[C@@H]2NC(=O)N[C@@H]21)NCCCCCC(=O)*; Biotin = O=C1N[C@H]2[C@H](CS[C@H]2CCCCC(=O)*)N1; Ahx = NCCCCCC(=O)O

One data set can be described thus: in vitro. The settings on record: African green monkey.
Data set [1] deals with HSV-1 KOS mutant hrR3. The data set is described as follows: Inactivation of pre-adsorbed virus (virus inactivation). It counts as cell-based. The settings on record: 33° C.; read-out: Virus Inactivation IC50 (pre-adsorbed virus). How it is done: (§1) Two assays were used to assess the ability of the TAT peptides to inhibit infection of Vero cells with the hrR3 virus. In both assays, the virus was preadsorbed to cells at 4° C. and entry was initiated in the presence of peptide by shifting the cultures to a permissive temperature (30-37° C.). One hour later, the peptide was rinsed off. The entry blocking activity was measured in half of the cultures, in which any extracellular virus remaining after the peptide treatment was inactivated with low pH citrate buffer. The rest of the cultures were exposed to PBS instead of citrate buffer and used to measure virus inactivation. Virus inactivation depended on persistent effects of the peptide lasting for a period of eight hours. At the end of that period, all cultures were fixed and infected cells were detected by staining with X-gal.
(§2) Virus (m.o.i.=0.025) was preadsorbed to Vero cells for 1 h at 4° C. before cultures were exposed to TAT-C (FIG. 15A), bTAT-9X (FIG. 15B), or n50,51TAT-C (FIGS. 15C, 15D) for 1 h at 33 (FIGS. 15A, 15B), 31 (FIG. 15C), or 37° C. (FIG. 15D). […] Inhibition of entry was measured in the citrate-treated cultures, in which any remaining external virus was inactivated immediately following exposure to peptide (●). Persistent virus inactivation lasting, at least in part, for the 8 h period following exposure to peptide, was measured in the PBS-treated cultures (◯). The IC50s measured in these experiments are included in Table 5.

For data set [2], the system named is HSV-1 KOS mutant hrR3. The data set is described as follows: LacZ+ virus (hrR3) entry assay with pre-adsorbed virus (entry block). It counts as cell-based. The procedure: LacZ^+ virus (hrR3) entry assay: Confluent Vero cell cultures in 96-well microtiter plates were switched to Hepes-buffered serum-free DMEM, cooled on ice to 4° C. for 30 min, and infected with hrR3 for 1 hour at 4° C. in 40 μL of medium. Unattached virus was removed by rinsing with ice-cold medium. Treatments with antiviral peptide SEQ ID NO:1, referred to as EB, or a control peptide which comprised the RRKK tetra-peptide (SEQ ID NO:16) attached to a scrambled version of the membrane transiting peptide RRKKLAALPLVLAAPLAVLA (SEQ ID NO:17) (referred to as EBX), or mock-treatments with peptide-free medium were carried out in serum-free DMEM as indicated. Virus entry was initiated by transferring cultures to 37° C. To inactivate any remaining extracellular virus, cultures were rinsed with PBS and exposed to low pH citrate buffer (40 mM citric acid, 10 mM KCl, 135 mM NaCl, pH 3.0, according to Highlander et al., J. Virol. 61:3356 (1987), for 1 min at 23° C. The citrate was rinsed off with PBS and cultures were maintained in serum-supplemented DMEM until they were fixed with 0.5% gluteraldehyde in 5×PBS for 30 min at 23° C., stained for β-galactosidase activity for 1 hour or overnight at 23° C. with X-gal (Fisher Biotech; BP1615-1) in 1×PBS containing […], 1.3 mM K4Fe(CN)6, and 1.3 mM K3Fe(CN)6, and scored for the presence of blue […] cells.
In these studies, the hrR3 virus was pre-adsorbed to cells for 1 hour at 4° C. before ice cold 25 μM EB or EBX were added in serum-free DMEM. After an additional 1 hour at 4° C., cultures were shifted to 37° C. to initiate virus entry. At 15 min intervals following the temperature shift, any virus remaining outside the cells was inactivated by washing the cultures with low pH citrate buffer. Cultures were then rinsed and returned to peptide-free serum-supplemented DMEM until they were fixed and stained for β-galactosidase 8 hours after the temperature shift.
as §1, §2

For data set [3], the system named is HSV-1 KOS mutant hrR3. To be noted: read-out: post-entry effects IC50; peptide added after citrate treatment, 8 h.
Data set [4] concerns Vero, HeLa, CV-1PD, TM-1, DP-9, CEMx174, NIKS, W12E cells. The experiment in a line: MTS assay, eight cell lines. To be noted: eight cell lines.
The next data set relates to hrR3. The data set is described as follows: Virucidal assay. The format is cell-based, HSV-1. The procedure: […] The treated virus was diluted 200-fold with serum-supplemented DMEM and assayed for infectivity approximately 1 hour later in microtiter wells seeded with Vero cells (3.5×10^4 cells/well) 1 d earlier. Forty or 100 microliter volumes of diluted virus were adsorbed for 1 or 2 h at 37° C. and lacZ^+ cells were scored 8 hours later. In some experiments, aliquots of diluted virus were first dialyzed (Spectra/Por; MWCO 12-14,000) overnight at 4° C. against a 60-fold excess volume of Hepes-buffered serum-supplemented DMEM or forced by syringe through 0.22 μm membranes (Millex-GV; Millipore) before the remaining infectious virus was assayed.

The mark [5] stands for this setting: 33° C., read-out: Entry Block IC50.

What is called pIC50 is the negative decadic logarithm of the IC50, by convention in mol/L. As for `CC(C)C[C@H](NC(=O)[C@@H](NC(=O)[C@H](C)NC(=O)[C@H](CC(C)C)NC(=O)[C@@H]1CCCN1C(=O)[C@H](C)NC(=O)[C@H](C)NC(=O)[C@H](CC(C)C)NC(=O)[C@@H](NC(=O)[C@H](CC(C)C)NC(=O)[C@@H]1CCCN1C(=O)[C@H](CC(C)C)NC(=O)[C@H](C)NC(=O)[C@H](C)NC(=O)[C@H](CC(C)C)NC(=O)[C@@H]1CCCN1C(=O)[C@H](CCCNC(=N)N)NC(=O)[C@H](CCCNC(=N)N)NC(=O)[C@H](CCCNC(=N)N)NC(=O)[C@H](CCC(N)=O)NC(=O)[C@H](CCCNC(=N)N)NC(=O)[C@H](CCCNC(=N)N)NC(=O)[C@H](CCCCN)NC(=O)[C@H](CCCCN)NC(=O)[C@H](CCCNC(=N)N)NC(=O)CN)C(C)C)C(C)C)C(=O)N[C@@H](C)C(=O)O` [TAT-17] (H-GRKKRRQRRRPLAALPLVLAAPLAVLA-OH), the pIC50 is approximately 3.70 in the data set “in vitro”, 5.08 in the data set on HSV-1 KOS mutant hrR3 [1] and 5.62 with HSV-1 KOS mutant hrR3 [2] (setting [5]).
For the compound `CC(C)C[C@H](NC(=O)CCCCCNC(=O)CCCC[C@@H]1SC[C@@H]2NC(=O)N[C@@H]21)C(=O)N[C@@H](C)C(=O)N[C@H](C(=O)N[C@@H](CC(C)C)C(=O)N[C@@H](C)C(=O)N1CCC[C@H]1C(=O)NCC(=O)N[C@@H](CCCNC(=N)N)C(=O)N[C@@H](CCCCN)C(=O)N[C@@H](CCCCN)C(=O)N[C@@H](CCCNC(=N)N)C(=O)N[C@@H](CCCNC(=N)N)C(=O)N[C@@H](CCC(N)=O)C(=O)N[C@@H](CCCNC(=N)N)C(=O)N[C@@H](CCCNC(=N)N)C(=O)N[C@@H](CCCNC(=N)N)C(=O)N[C@@H](CS)C(N)=O)C(C)C` [b6TAT-C, b-LAVLAPGRKKRRQRRRC-amide] ({Biotin-Ahx}-LAVLAPGRKKRRQRRRC-NH2), the figures for the pIC50 with HSV-1 KOS mutant hrR3 [1], with HSV-1 KOS mutant hrR3 [3] and in the data set with HSV-1 KOS mutant hrR3 [2] (setting [5]) were 4.60, 3.72 and 5.28, respectively.
As to `CC(C)C[C@H](NC(=O)CCCCCNC(=O)CCCC[C@@H]1SC[C@@H]2NC(=O)N[C@@H]21)C(=O)N[C@@H](C)C(=O)N[C@@H](C)C(=O)N[C@@H](CC(C)C)C(=O)N1CCC[C@H]1C(=O)N[C@@H](CC(C)C)C(=O)N[C@H](C(=O)N[C@@H](CC(C)C)C(=O)N[C@@H](C)C(=O)N[C@@H](C)C(=O)N1CCC[C@H]1C(=O)N[C@@H](CC(C)C)C(=O)N[C@@H](C)C(=O)N[C@H](C(=O)N[C@@H](CC(C)C)C(=O)N[C@@H](C)C(=O)N1CCC[C@H]1C(=O)NCC(=O)N[C@@H](CCCNC(=N)N)C(=O)N[C@@H](CCCCN)C(=O)N[C@@H](CCCCN)C(=O)N[C@@H](CCCNC(=N)N)C(=O)N[C@@H](CCCNC(=N)N)C(=O)N[C@@H](CCC(N)=O)C(=O)N[C@@H](CCCNC(=N)N)C(=O)N[C@@H](CCCNC(=N)N)C(=O)N[C@@H](CCCNC(=N)N)C(=O)N[C@@H](CS)C(N)=O)C(C)C)C(C)C` [b17TAT-C] ({Biotin-Ahx}-LAALPLVLAAPLAVLAPGRKKRRQRRRC-NH2), the negative logarithm of the IC50 (pIC50) in “in vitro” is approximately 3.70; in the data set with HSV-1 KOS mutant hrR3 [1], 5.03; with HSV-1 KOS mutant hrR3 [2] (setting [5]), 5.27.
Take `CC(C)C[C@H](NC(=O)[C@H](C)NC(=O)[C@H](CC(C)C)NC(=O)[C@H](CC(C)C)NC(=O)[C@@H](NC(=O)[C@H](C)NC(=O)[C@@H]1CCCN1C(=O)[C@H](CC(C)C)NC(=O)[C@H](CC(C)C)NC(=O)[C@H](C)NC(=O)[C@@H](NC(=O)[C@H](C)NC(=O)[C@H](C)NC(=O)[C@H](CCCCN)NC(=O)[C@H](CCCCN)NC(=O)[C@H](CCCNC(=N)N)NC(=O)[C@H](CCCNC(=N)N)NC(=O)CCCCCNC(=O)CCCC[C@@H]1SC[C@@H]2NC(=O)N[C@@H]21)C(C)C)C(C)C)C(=O)N[C@@H](CC(C)C)C(=O)N[C@@H](C)C(=O)N1CCC[C@H]1C(=O)O` [bEB] ({Biotin-Ahx}-RRKKAAVALLPAVLLALLAP-OH): in the data set “in vitro”, the negative logarithm of the IC50 (pIC50) was 4.00.
For `CC[C@H](C)[C@H](NC(=O)[C@H](CCCCN)NC(=O)[C@@H](NC(=O)[C@H](CCC(N)=O)NC(=O)[C@H](CCCNC(=N)N)NC(=O)CCCCCNC(=O)CCCC[C@@H]1SC[C@@H]2NC(=O)N[C@@H]21)[C@@H](C)CC)C(=O)N[C@@H](Cc1ccccc1)C(=O)N[C@@H](Cc1ccccc1)C(=O)N1CCC[C@H]1C(=O)N[C@@H](CC(N)=O)C(=O)N[C@@H](CCCNC(=N)N)C(=O)N[C@@H](CCCNC(=N)N)C(=O)N[C@@H](CCSC)C(=O)N[C@@H](CCCCN)C(=O)N[C@@H](Cc1ccccc1)C(=O)N[C@@H](CCCCN)C(=O)N[C@@H](CCCCN)C(N)=O` [bHOMFF, b - RQIKI F FPNRRMK F KK-amide] ({Biotin-Ahx}-RQIKIFFPNRRMKFKK-NH2), the “cytotoxicity to cells (MTS), overall” value in data set [4] was “generally not cytotoxic”. The compound also showed a negative logarithm of the IC50 (pIC50) in the data set “in vitro” of less than 4.00.
For the compound `CC(C)C[C@H](NC(=O)[C@@H](NC(=O)[C@H](C)NC(=O)[C@H](CC(C)C)NC(=O)[C@@H]1CCCN1C(=O)[C@H](C)NC(=O)[C@H](C)NC(=O)[C@H](CC(C)C)NC(=O)[C@@H](NC(=O)[C@H](CC(C)C)NC(=O)[C@@H]1CCCN1C(=O)[C@H](CC(C)C)NC(=O)[C@H](C)NC(=O)[C@H](C)NC(=O)[C@H](CC(C)C)NC(=O)[C@@H]1CCCN1C(=O)[C@H](CCCNC(=N)N)NC(=O)[C@H](CCCNC(=N)N)NC(=O)[C@H](CCCNC(=N)N)NC(=O)[C@H](CCC(N)=O)NC(=O)[C@H](CCCNC(=N)N)NC(=O)[C@H](CCCNC(=N)N)NC(=O)[C@H](CCCCN)NC(=O)[C@H](CCCCN)NC(=O)[C@H](CCCNC(=N)N)NC(=O)CNC(=O)[C@H](Cc1ccc(O)cc1)NC(=O)CCCCCNC(=O)CCCC[C@@H]1SC[C@@H]2NC(=O)N[C@@H]21)C(C)C)C(C)C)C(=O)N[C@@H](C)C(=O)O` [bTAT-17] ({Biotin-Ahx}-YGRKKRRQRRRPLAALPLVLAAPLAVLA-OH), the results for the pIC50 in “in vitro”, in the data set on HSV-1 KOS mutant hrR3 [1] and in the data set with HSV-1 KOS mutant hrR3 [2] (setting [5]) were approximately 3.70, 5.18 and 5.62, respectively.
For `N=C(N)NCCC[C@H](NC(=O)CNC(=O)CCCCCNC(=O)CCCC[C@@H]1SC[C@@H]2NC(=O)N[C@@H]21)C(=O)N[C@@H](CCCCN)C(=O)N[C@@H](CCCCN)C(=O)N[C@@H](CCCNC(=N)N)C(=O)N[C@@H](CCCNC(=N)N)C(=O)N[C@@H](CCC(N)=O)C(=O)N[C@@H](CCCNC(=N)N)C(=O)N[C@@H](CCCNC(=N)N)C(=O)N[C@@H](CCCNC(=N)N)C(=O)N[C@@H](CS)C(N)=O` [bTAT-C, b-GRKKRRQRRRC-amide], the negative-log IC50 (pIC50) in the data set on HSV-1 KOS mutant hrR3 [1] was 4.57; with HSV-1 KOS mutant hrR3 [3] it was 3.76; with HSV-1 KOS mutant hrR3 [2] (setting [5]), 5.24.
Take “b - KLALKLALKALKAALKLA-amide ({code b}-KLALKLALKALKAALKLA-NH2; SMILES CC(C)C[C@H](NC(=O)[C@H](C)NC(=O)[C@H](CCCCN)NC(=O)[C@H](CC(C)C)NC(=O)[C@H](C)NC(=O)[C@H](CC(C)C)NC(=O)[C@H](CCCCN)NC(=O)[C@H](CC(C)C)NC(=O)[C@H](C)NC(=O)[C@H](CC(C)C)NC(=O)[C@H](CCCCN)NC(=O)CCCCCNC(=O)CCCC[C@@H]1SC[C@@H]2NC(=O)N[C@@H]21)C(=O)N[C@@H](CCCCN)C(=O)N[C@@H](C)C(=O)N[C@@H](C)C(=O)N[C@@H](CC(C)C)C(=O)N[C@@H](CCCCN)C(=O)N[C@@H](CC(C)C)C(=O)N[C@@H](C)C(N)=O) [bKLAd11,12]”: the pIC50 in the data set with hrR3 (4° C., read-out: Virucidal Activity 4° C. IC50) is 3.52; in the data set on hrR3 (37° C., read-out: Virucidal Activity 37° C. IC50), 4.21; in the data set with HSV-1 KOS mutant hrR3 [2] (read-out: Entry Blocking Activity IC50) it was 4.64.
